In patent publication EP2150534B1, “ISOQUINOLINONE DERIVATIVES AS NK3 ANTAGONISTS” (H. Lundbeck A/S, priority 2007, dated 2008):

Key:
human NK3 receptor [1] = target: T1, human NK3 receptor (Homo sapiens, UniProt P29371); experiment: NK3 receptor efficacy and potency assay (FLIPR Calcium 4 assay, BHK cells; agonist and antagonist mode versus NKB); type: cell-based; conditions: read-out: Potency cIC50
T1 construct: expressed in transfected cells; membranes prepared from them
T1 sequence (P29371 1-465): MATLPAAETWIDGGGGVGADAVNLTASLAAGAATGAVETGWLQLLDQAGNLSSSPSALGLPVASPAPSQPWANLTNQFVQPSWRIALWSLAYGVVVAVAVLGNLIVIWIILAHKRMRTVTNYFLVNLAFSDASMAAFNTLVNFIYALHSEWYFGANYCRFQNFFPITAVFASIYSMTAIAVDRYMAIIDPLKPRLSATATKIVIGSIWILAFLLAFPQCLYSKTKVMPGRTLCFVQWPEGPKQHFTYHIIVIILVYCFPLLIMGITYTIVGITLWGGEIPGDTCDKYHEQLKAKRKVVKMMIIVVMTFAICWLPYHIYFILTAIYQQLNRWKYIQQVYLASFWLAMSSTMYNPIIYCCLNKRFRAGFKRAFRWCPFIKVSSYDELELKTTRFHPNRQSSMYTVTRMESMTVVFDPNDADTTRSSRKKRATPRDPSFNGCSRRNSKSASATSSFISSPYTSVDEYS
Procedure: BHK cells stably expressing the human NK3 receptor were seeded in 100 µl media in black walled clear-base 96-wells plates (Costar) aiming at a confluency of 95-100% at the day of assay. The assay was performed according to the FLIPR Calcium 4 Assay kit (Molecular Devices). At the day of the assay, the media was removed and the cells were washed once with the HBSS buffer (Hanks BSS buffer, pH 7,4 containing 20 mM Hepes) before 100 µl of a solution of the calcium assay reagent dissolved in the HBSS buffer containing 2,5 mM probinicid was added to the cells. The plates were incubated for 60 min at 34°C, 10% CO2 before use in the FLIPR for examination of fluorescence.
For efficacy and potency evaluation of compounds, these were diluted in HBSS buffer prior to test. For test of agonist activity, 25 µl of the diluted compound solution was added and the plate was analyzed for 5 minutes in the FLIPR. […] The plates were subsequently analyzed for 5 minutes before the assay was terminated. The maximal increase in fluorescence over background following each ligand addition was determined.

human NK3 receptor [2] = target: T1, human NK3 receptor; experiment: NK3 receptor binding assay (SPA-based competition binding with 125I-NKB, membranes of BHK cells); conditions: table of Example 10; affinity obtained as described in Example 9; read-out: Affinity Ki
Procedure: Membranepreparation: BHK cells stably expressing the human NK3 receptor were seeded in harvesting plates in Dulbeccos MEM containing GlutaMax (862 mg/l), 1 mM sodium pyruvate, 10% fetal calf serum, 1% Pen/Strep, I mg/ml G418 and were grown at 34 °C in a humidified atmosphere containing 10% CO2. To increase receptor expression, 10 µM trichotatin A was added to the media 24 hours before harvest of the cells at a confluency of app 90%. Prior to the harvesting, the cells were washed twice with PBS without Mg^2+ og Ca^2+ and subsequently scrapped of in 10 ml PBS pr harvesting plate. The cells suspension were centrifuged at 1500xG in three minutes before resuspension in 15 mM Tris-HCl pH 7,5 buffer containing 2 mM MgCl2; 0,3 mM EDTA and 1 mM EGTA (buffer A). The cell suspention was homogenised and subsequently centrifuged at 40000xG in 30 minutes. The membrane-pellet was resuspended in buffer A containing 250 mM sucrose, alliquoted and stored at - 80°C.
Affinity assay description: The assay was performed as a SPA-based competition-binding assay in a 50 mM Tris pH 7.4 assay buffer containing 120 mM NaCl, 3 mM MnCl2, 40 µg/ml bacitracin, 2 µg/ml Chymostatin, 1 µg/ml Phosphoramidon and 4 µg/ml Leupeptin. App 0.02 nM ^125I-NKB was mixed with test compounds before addition of 4 µg of the homogenised NK3 membrane preparation and 0,025 mg SPA beads in a total volume of 60 µl. The assay plate was subsequently under agitation incubated for 90 min at RT. The plate was centrifugated 10 minutes at 500xG and counted in a topcounter 5 minuttes pr well.
The non-specific binding constituted app 5 % of the total binding.
Data points were expressed in percent of the specific binding of ^125I-NKB and the IC50 values (concentration causing 50 percent inhibition of ^125I-NKB specific binding) were determined by non-linear regression analysis using a sigmoidal variable slope curve fitting. The dissociation constant (Ki) were calculated from the Cheng Prusoff equation (Ki = IG50/(1+(L/KD))), where the concentration of free radioligand L is approximated to the concentration of added ^125I-NKB in the assay (app 0,02 nM).
The KD of ^125I-NKB was determined to be 0,7 nM from three independent saturation assays each performed with duplicate determinations. Bmax was app 2 pmol/mg.

SMILES | IC50 (human NK3 receptor [1]) [nM] | Ki (human NK3 receptor [2]) [nM]
Cc1c(C(=O)N[C@H](c2ccccc2)C2CC2)c2cccc(F)c2c(=O)n1-c1ccccc1 [Example 6c, 8-Fluoro-3-methyl-1-oxo-2-phenyl-1,2-dihydro-isoquinoline-4-carboxylic acid ((S)-cyclopropyl-phenyl-methyl)-amide] | 24 | 23
CC(C)(C)N1CCC(Cc2c(C(=O)N[C@H](c3cccc(F)c3)C3CC3)c3cccc(Cl)c3c(=O)n2-c2ccccc2)CC1 [Example 8a, 3-(1-tert-Butyl-piperidin-4-ylmethyl)-8-chloro-1-oxo-2 phenyl-1,2-dihydro-isoquinoline-4-carboxylic acid [(S)-cyclopropyl-(3-fluoro-phenyl)-methyl]-amide] | 9.9 | 7
